Several values for one entry are separate records, joined by “and”; a condition that tells them apart may be missing. Equal entries are not always repeated. Where two headings read alike, the source gives them in different places.
What was measured:
[1] = system: CAPAN-1 (a BRCA-2-mutated pancreatic cancer cell line); assay: Cell proliferation assay, three-day, CellTiter-Glo, CAPAN-1; assay type: cell-based; settings: for inhibition at 0.00508 µM: CAPAN-1, Conc. 0.00508 uM; for inhibition at 0.0152 µM: CAPAN-1, Conc. 0.0152 uM; for inhibition at 0.0457 µM: CAPAN-1, Conc. 0.0457 uM; for inhibition at […]: CAPAN-1, Conc. 0.14 uM; for inhibition at 0.41 µM: CAPAN-1, Conc. 0.41 uM; for inhibition at 1.23 µM: CAPAN-1, Conc. 1.23 uM; for inhibition at 3.7 µM: CAPAN-1, Conc. 3.70 uM; for inhibition at 11.11 µM: CAPAN-1, Conc. 11.11 uM; for inhibition at 33.33 µM: CAPAN-1, Conc. 33.33 uM; for inhibition at 100 µM: CAPAN-1, Conc. 100.00 uM
Experimental: (§1) A three-day assay was conducted. A cell suspension was prepared. Cell density was counted by an automated cell counter and then diluted to the required density, according to seeding density. 50 μL cells were seeded into 384-well plate in growth medium according to the plate map. The cells were incubated at 37 °C, 5% CO2 overnight.
(§2) 200× compound solution in DMSO was prepared and diluted with growth medium to 26× final concentration by addition of 26 μL 200× compounds to 174 μL growth medium. Then 2 μL of diluted compound solution was added to cells and the cell was incubated at 37 °C, 5% CO2 for 72 h.
(§3) The assay plate was equilibrated to room temperature prior to measurement. 15 μL of CellTiter-Glo Reagent was added into each well and the contents were mixed for 2 min on an orbital shaker to induce cell lysis. The cells were incubated at room temperature for 60 min to stabilize luminescent signal. Luminescence was recorded on the Envision system.

[2] = system: MDA-MB-436 (a BRCA-1-mutated breast cancer cell line); assay: Cell proliferation assay, three-day, CellTiter-Glo, MDA-MB-436; assay type: cell-based; settings: for inhibition at 0.00508 µM / inhibition at 0.0152 µM / inhibition at 0.0457 µM / inhibition at 0.41 µM / inhibition at 1.23 µM / inhibition at 3.7 µM / inhibition at 11.11 µM / inhibition at 33.33 µM / inhibition at 100 µM / IC50: Homo sapiens; for inhibition at 0.00508 µM: MDA-MB-436, MDA-MB-436, Conc. 0.00508 uM; for inhibition at 0.0152 µM: MDA-MB-436, MDA-MB-436, Conc. 0.0152 uM; for inhibition at 0.0457 µM: MDA-MB-436, MDA-MB-436, Conc. 0.0457 uM; for inhibition at 0.41 µM: MDA-MB-436, MDA-MB-436, Conc. 0.41 uM; for inhibition at 1.23 µM: MDA-MB-436, MDA-MB-436, Conc. 1.23 uM; for inhibition at 3.7 µM: MDA-MB-436, MDA-MB-436, Conc. 3.70 uM; for inhibition at 11.11 µM: MDA-MB-436, MDA-MB-436, Conc. 11.11 uM; for inhibition at 33.33 µM: MDA-MB-436, MDA-MB-436, Conc. 33.33 uM; for inhibition at 100 µM: MDA-MB-436, MDA-MB-436, Conc. 100.00 uM
Experimental: as §1, §2, §3

[3] = CAPAN-1, curve fit of Inh %, plate 1
[4] = Homo sapiens, replicate 1, read-out: Inh % 1
[5] = Homo sapiens, replicate 2, read-out: Inh % 2

CN[C@@H]1C[C@H]2O[C@@](C)([C@@H]1OC)n1c3ccccc3c3c4c(c5c6ccccc6n2c5c31)C(=O)NC4 [STS, reference compound]
IC50 ([1]; CAPAN-1, 72 h, supplement Summary sheet, read-out: IC50): 64.7 nM
Bottom [1, 3]: 8.442 and 8.44
HillSlope [1, 3]: 0.6137 and 0.61
Top [1, 3]: 105.1
IC50 ([1]; CAPAN-1, curve fit, plate 1, read-out: IC50): 64.7 nM

O=C(c1cc(Cc2n[nH]c(=O)c3ccccc23)ccc1F)N1CCN(C(=O)C2CC2)CC1 [pc2, Olaparib, reference compound]
inhibition at 0.00508 µM ([2]; replicate 1, read-out: Inh % 1): 4.1%
inhibition at 0.00508 µM ([2]; replicate 2, read-out: Inh % 2): -2.3%
inhibition at 0.0152 µM ([2]; replicate 1, read-out: Inh % 1): 1.7%
inhibition at 0.0152 µM ([2]; replicate 2, read-out: Inh % 2): -1.2%
inhibition at 0.0457 µM ([2]; replicate 1, read-out: Inh % 1): -5.7%
inhibition at 0.0457 µM ([2]; replicate 2, read-out: Inh % 2): -2.8%
inhibition at 0.41 µM ([2]; replicate 1, read-out: Inh % 1): 0.181%
inhibition at 0.41 µM ([2]; replicate 2, read-out: Inh % 2): 5.7%
inhibition at 1.23 µM ([2]; replicate 1, read-out: Inh % 1): 4%
inhibition at 1.23 µM ([2]; replicate 2, read-out: Inh % 2): 2%
inhibition at 3.7 µM ([2]; replicate 1, read-out: Inh % 1): 12.4%
inhibition at 3.7 µM ([2]; replicate 2, read-out: Inh % 2): 13.5%
inhibition at 11.11 µM ([2]; replicate 1, read-out: Inh % 1): 23.3%
inhibition at 11.11 µM ([2]; replicate 2, read-out: Inh % 2): 24.2%
inhibition at 33.33 µM ([2]; replicate 1, read-out: Inh % 1): 50.1%
inhibition at 33.33 µM ([2]; replicate 2, read-out: Inh % 2): 43.1%
inhibition at 100 µM ([2]; replicate 1, read-out: Inh % 1): 92.4%
inhibition at 100 µM ([2]; replicate 2, read-out: Inh % 2): 90.9%
IC50 ([2]; MDA-MB-436, 72 h, CellTiter-Glo, read-out: MDA-MB-436 IC50): 30.2 µM
IC50 ([2]; MDA-MB-436, 72 h, supplement Summary sheet, read-out: IC50): 30.2 µM
IC50 ([2]; MDA-MB-436, curve-fit parameter list, concentrations in uM, read-out: IC50): 30.2 µM
LogIC50 ([2]; MDA-MB-436, curve-fit parameter list, Log (uM)): 1.481
CAPAN-1 IC50 (μM) ([1]; 72 h, CellTiter-Glo): low potency
LogIC50 ([1]; CAPAN-1, curve-fit output, concentration axis Log (uM)): 2.033
IC50 ([1]; Homo sapiens, CAPAN-1, 72 h, CellTiter-Glo, read-out: CAPAN-1 IC50): > 100000 nM
inhibition at 0.00508 µM [1, 4]: 1.8%
inhibition at 0.00508 µM [1, 5]: -2%
inhibition at 0.0152 µM [1, 4]: 5.2%
inhibition at 0.0152 µM [1, 5]: -2.3%
inhibition at 0.0457 µM [1, 4]: -6.9%
inhibition at 0.0457 µM [1, 5]: 0.662%
inhibition at […] [1, 4]: 0.107%
inhibition at […] [1, 5]: 6.2%
inhibition at 0.41 µM [1, 4]: 4.3%
inhibition at 0.41 µM [1, 5]: 7.9%
inhibition at 1.23 µM [1, 4]: 15.1%
inhibition at 1.23 µM [1, 5]: 0.6%
inhibition at 3.7 µM [1, 4]: 21.3%
inhibition at 3.7 µM [1, 5]: 11.6%
inhibition at 11.11 µM [1, 4]: 18.6%
inhibition at 11.11 µM [1, 5]: 23.5%
inhibition at 33.33 µM [1, 4]: 38.5%
inhibition at 33.33 µM [1, 5]: 34.2%
inhibition at 100 µM [1, 4]: 48.2%
inhibition at 100 µM [1, 5]: 47.5%
